Measurements from patent US6410723B1, “VDUP1 promoter and methods of use thereof” (priority 2000, dated 2002).

What was measured:
VDUP1 promoter = experiment: Secreted alkaline phosphatase reporter assay, COS cells transiently transfected with VDUP1 promoter constructs, treated with Vitamin D3; type: cell-based, monkey; conditions: 200 nM Vitamin D3, all constructs tested, AP reporter
Experimental: (§1) FIG. 5 is a graph showing secreted alkaline phosphatase (SEAP) activity upon transient transfection of COS cells of various VDUP1 promoter constructs operably linked to an alkaline phosphatase encoding nucleotide sequence, treated or untreated with 200 nM Vitamin D3.
(§2) Four deletion constructs were generated corresponding to 5′ end lengths of 1448bp (SEQ ID NO:1), 1002bp (SEQ ID NO:4), 597bp (SEQ ID NO:3), and 452bp (SEQ ID NO:2) as shown in FIG. 1. In the 452bp (SEQ ID NO:2) construct, the two Sp1 elements are deleted. Each fragment was generated by PCR from the 3.0 kb EcoRI-BamHI subclone, and introduced upstream of the secreted alkaline phosphatase (AP) reporter nucleic acid sequence. Representative clones of each were verified by DNA sequencing. The VDUP1 constructs were then transfected into COS cells and screened for expression in comparison to an SV40 immediate early promoter driven AP construct.

[1] = test system: SV40 immediate early promoter; experiment: Secreted alkaline phosphatase reporter assay, COS cells transfected with SV40 promoter control construct, treated with vitamin D3; type: cell-based; conditions: addition of vitamin D3 (200 nM), AP reporter
Experimental: as §1, §2

VDUP1 gene = conditions: human HL-60 cells; cited from earlier work
thioredoxin (TRX) = conditions: HL-60 cells treated with vitamin D3; cited from earlier work

C=C1/C(=C\C=C2/CCC[C@]3(C)[C@@H]([C@H](C)CCCC(C)(C)O)CC[C@@H]23)C[C@@H](O)C[C@@H]1O [Vitamin D3, 1,25-dihydroxyvitamin D3]
enhancement of VDUP1 expression (VDUP1 promoter): 25% | induction of SV40 control [1]: not induced | induction of VDUP1 (VDUP1 gene): strongly induced | expression of TRX (thioredoxin (TRX)): significant decrease

C[C@@H]1C[C@@H]([C@H](O)CC2CC(=O)NC(=O)C2)C(=O)[C@@H](C)C1 [cyclohexamide]
induction of VDUP1 (VDUP1 gene): several fold
